Reference: patent US8222218B2, “Cyclopropanated carbohydrates” (Seton Hall University, priority 2008, dated 2012)
Where two headings read alike, the source gives them in different places.

Key:
Format in all cases: in vivo
MES-induced seizures = assay: Maximal Electroshock Seizure (MES) test, mice; conditions: Mus musculus, ip, mice, i.p.
Text: The MES test is a model for generalized tonic-clonic seizures. The seizures are highly reproducible and electrophysiologically consistent with human seizures. The test provides information about a compound's ability to prevent the spread of seizure when all neuronal circuits of the brain are maximally active. 60 Hz of alternating current (50 mA in mice, 150 mA in rats) is applied for 2 seconds via corneal electrodes that have been treated with an electrolyte solution containing an anesthetic (0.5% tetracaine HCl). Mice are tested at a variety of intervals after an i.p. injection of […] solution of the test compound (commonly in a 0.5% solution of methylcellulose) at 30, 100, and 300 mg/kg doses. Rats are examined after a 30 mg/kg (per os, p.o.) dose that is applied in a volume of 0.04 mL/g. An animal is considered “protected” from MES-induced seizures upon removal of the hind limb extensor component of the seizure.
(§1) Male and female albino CF1 mice (18-25 g, Charles River, Portage, Mich.) and male albino Sprague-Dawley rats (275-300 g, kindling test; 100-150 g all other tests; Charles River, Raleigh, N.C.) were used as experimental animals.

[1] = system: metrazole-induced clonic seizures; assay: Subcutaneous Metrazole Seizure Threshold Test (scMET), mice; conditions: Mus musculus, sc, mice
Description: The subcutaneous injection of metrazole, which is a convulsant, produces clonic seizures in laboratory animals. The scMET test is designed to identify compounds that raise the seizure threshold of an animal. Mice are pretreated with test compound at 30, 100, and 300 mg/kg doses in a similar manner to the MES test. Rats are treated with a 50 mg/kg dose (p.o.). At the previously determined TPE of the test compound, the dose of metrazole that will induce convulsions in 97% of animals (CD97: 85 mg/kg mice) is injected into the loose fold of the skin in the midline of the neck. The animals are placed in isolation cages to minimize stress and observed for the next 30 minutes for the presence or absence of seizures. An episode of clonic spasms (approximately 3-5 seconds) of the fore and/or hindlimbs, jaws or vibrissae is taken as the endpoint.
as §1

[2] = Acute toxicity, minimal motor impairment (rotorod), mice; conditions: mice, rotorod; for TOX 30 0.5 h (animals toxic/tested) / TOX 30 4 h (animals toxic/tested): 30 mg/kg; for TOX 100 0.5 h (animals toxic/tested) / TOX 100 4 h (animals toxic/tested): 100 mg/kg; for TOX 300 0.5 h (animals toxic/tested) / TOX 300 4 h (animals toxic/tested): 300 mg/kg
Description: Toxicity was measured using the minimal motor impairment test described below.
Animals are monitored for overt signs of impaired neurological or muscular function to assess a compound's toxicity. In mice, the rotorod procedure is used to disclose minimal muscular or neurological impairment. When a mouse is placed on a rotating rod (6 rpm), the animal can maintain its equilibrium for long periods of time. The animal is considered toxic if it falls off the rotating rod three times during a 1 minute period. In rats, minimal motor deficit is indicated by ataxia, which is manifested by an abnormal, uncoordinated gait.

[3] = 0.5 h, read-out: MES 30 0.5 h (animals protected/tested)
[4] = 4 h, read-out: MES 30 4 h (animals protected/tested)
[5] = 0.5 h, read-out: MES 100 0.5 h (animals protected/tested)
[6] = 4 h, read-out: MES 100 4 h (animals protected/tested)
[7] = 0.5 h, read-out: MES 300 0.5 h (animals protected/tested)
[8] = 4 h, read-out: MES 300 4 h (animals protected/tested)
[9] = 0.4 h, read-out: scMET 30 0.4 h (animals protected/tested)
[10] = 0.5 h, read-out: scMET 30 0.5 h (animals protected/tested)
[11] = 0.4 h, read-out: scMET 100 0.4 h (animals protected/tested)
[12] = 0.5 h, read-out: scMET 100 0.5 h (animals protected/tested)
[13] = 0.4 h, read-out: scMET 300 0.4 h (animals protected/tested)
[14] = 0.5 h, read-out: scMET 300 0.5 h (animals protected/tested)

Compound	responders at 30 mg/kg (MES-induced seizures; [3]) [%]	responders at 30 mg/kg (MES-induced seizures; [4]) [%]	responders at 100 mg/kg (MES-induced seizures; [5]) [%]	responders at 100 mg/kg (MES-induced seizures; [6]) [%]	responders at 300 mg/kg (MES-induced seizures; [7]) [%]	responders at 300 mg/kg (MES-induced seizures; [8]) [%]	responders at 30 mg/kg [1, 9] [%]	responders at 30 mg/kg [1, 10] [%]	responders at 100 mg/kg [1, 11] [%]	responders at 100 mg/kg [1, 12] [%]	responders at 300 mg/kg [1, 13] [%]	responders at 300 mg/kg [1, 14] [%]	TOX 30 0.5 h (animals toxic/tested) [2]	TOX 30 4 h (animals toxic/tested) [2]	TOX 100 0.5 h (animals toxic/tested) [2]	TOX 100 4 h (animals toxic/tested) [2]	TOX 300 0.5 h (animals toxic/tested) [2]	TOX 300 4 h (animals toxic/tested) [2]
CCOC(=O)C1[C@@H]2[C@@H](OC)[C@@H]3O[C@H](c4ccc(OC)cc4)OC[C@H]3O[C@H]12 (stereo partly drawn) [Compound 18, Ethyl (2R,4aR,5aS,6aS,7R,7aS)-7-methoxy-2-(4-methoxyphenyl)hexahydro-4H-cyclopropa[5,6]pyrano[3,2-d][1,3]dioxine-6-carboxylate]	0	0	0	0	0	0	0	0	0	0	0	0	0/4	0/2	0/8	0/4	0/4	0/2
CCOC(=O)C1[C@@H]2[C@@H](O)[C@@H]3O[C@H](c4ccccc4)OC[C@H]3O[C@H]12 (stereo partly drawn) [Compound 20a, Ethyl (2R,4aR,5aS,6aR,7R,7aS)-7-hydroxy-2-phenylhexahydro-4H-cyclopropa[5,6]pyrano[3,2-d][1,3]dioxine-6-carboxylate]	0	0	0	0	0	0	0	0	0	0	0	0	0/4	0/2	0/8	0/4	0/4	0/2
CCOC(=O)C1[C@@H]2[C@@H](O)[C@@H]3O[C@H](c4ccc(C(C)(C)C)cc4)OC[C@H]3O[C@H]12 (stereo partly drawn) [Compound 20c, Ethyl (2R,4aR,5aS,6aR,7R,7aS)-2-(4-tert-butylphenyl)-7-hydroxyhexahydro-4H-cyclopropa[5,6]pyrano[3,2-d][1,3]dioxine-6-carboxylate]	0	0	0	0	0	0	0	0	0	0	0	0	0/4	0/2	0/8	0/4	0/4	0/2
CCOC(=O)C1[C@@H]2[C@@H](O)[C@@H]3O[C@H](c4cccc(OC)c4)OC[C@H]3O[C@H]12 (stereo partly drawn) [Compound 20e, Ethyl (2R,4aR,5aS,6aR,7R,7aS)-7-hydroxy-2-(3-methoxyphenyl)hexahydro-4H-cyclopropa[5,6]pyrano[3,2-d][1,3]dioxine-6-carboxylate]	0	0	0	0	0	0	0	0	0	0	0	0	0/4	0/2	0/8	0/4	0/4	0/2
